Test results as given in patent US20110172184A1, “ANTITUMOR AGENT CONTAINING 4 - [[3,5 - BIS ([…]) BENZOYL] AMINO] BENZOIC ACID” (TAIHO PHARMACEUTICAL CO., LTD., priority 2008, published 2011).

Tested on: human liver cancer cell line JHH-7
Assay: Antitumor effect (tumor weight T/C) on human liver cancer cell line JHH-7 transplanted into the left lateral liver lobe of nude mice
Assay type: in vivo, mouse
Conditions: tumor weight on 15th day
Procedure: Sorafenib was weighed at every time of use, and a liquid for administration was prepared. […] BALE/cA Jcl-nu male nude mice (Clea Japan, Inc.) were used as the efficacy test animals.
On the 15th day after the initiation of administration, the mice were killed by bleeding under ether anesthesia, subsequently tumors formed in the left lateral liver lobe were extracted, and the weight of the tumors was measured. The tumor growth rate (%) was calculated by the formula shown below, and the T/C value of each of the drug administered groups was calculated, while the average tumor weight of the non-drug administered control group was taken as 100%. This T/C value was used as an index of the antitumor effect. The statistical significance of the single drug administered groups was determined by Welch's two-tailed test, and the statistical significance of the effect synergizing action obtained by combined use was determined by the intersection union test based on Welch's two-tailed test.
Tumor growth rate (%)=T/C×100
T: Average tumor weight of a group with administration of the test compound
C: Average tumor weight of a group without administration of the test compound
(§1) On the 11th day after the transplantation, the animals were grouped into seven animals per group, and the treatment experiment was initiated. Doxorubicin was administered such that 10 mg/kg, which is the maximum tolerated dose for a mouse, was administered one time intravenously. Sorafenib was orally administered once a day for 14 consecutive days.
as §1, with “Gemcitabine” for “Doxorubicin”, “120” for “10”, “intraperitoneally four times in total at an interval of 3 days.” for “one time intravenously.”

C[Si](C)(C)c1cc(C(=O)Nc2ccc(C(=O)O)cc2)cc([Si](C)(C)C)c1 [compound 1, 4-[[3,5-bis(trimethylsilyl)benzoyl]amino]benzoic acid]
T/C value (tumor growth rate) (Pharmacological Test Example 1, compound 1 single drug, 2 mg/kg orally once a day for 14 days): 51%

COc1cccc2c1C(=O)c1c(O)c3c(c(O)c1C2=O)C[C@@](O)(C(=O)CO)C[C@@H]3O[C@H]1C[C@H](N)[C@H](O)[C@H](C)O1 [doxorubicin]
T/C value (tumor growth rate) (Comparative Example 1, doxorubicin single drug, 10 mg/kg one time intravenously): 70%

Nc1ccn([C@@H]2O[C@H](CO)[C@@H](O)C2(F)F)c(=O)n1 [gemcitabine]
T/C value (tumor growth rate) (Comparative Example 2, gemcitabine single drug, 120 mg/kg intraperitoneally four times at an interval of 3 days): 47%

CNC(=O)c1cc(Oc2ccc(NC(=O)Nc3ccc(Cl)c(C(F)(F)F)c3)cc2)ccn1 [sorafenib, N-(4-chloro-3-(trifluoromethyl)phenyl)-N′-(4-(2-(N-methylcarbamoyl)-4-pyridyloxy)phenyl)urea]
T/C value (tumor growth rate) (Comparative Example 1, sorafenib single drug, orally once a day for 14 days): 62% | T/C value (tumor growth rate) (Comparative Example 2, sorafenib single drug, orally once a day for 14 days): 60% | T/C value (tumor growth rate) (Pharmacological Test Example 1, sorafenib single drug, 10 mg/kg orally once a day for 14 days): 65%
